Reference: patent US20220281831A1, “FUSED-GLUTARIMIDE CRBN LIGANDS AND USES THEREOF” (Kymera Therapeutics, Inc., priority 2019, published 2022)

What was measured:
CRBN-DDB1 = CRBN-DDB1 (Homo sapiens, UniProt Q96SW2); assay: Fluorescence Polarization (FP) CRBN binding assay, probe TM-493 (FAM-BB-100); conditions: CRBN-DDB1, TM-493 probe, 60 min room temperature
Procedure: Fluorescence Polarization (FP) Assay
Materials: PerkinElmer EnVision 2104 Multilabel Reader, PerkinElmer FITC FP dual emission Label 2100-8060, Corning 384-well microplate #4514, V-CMR-TM-493 (FAM-BB-100), and CRBN-DDB1-180605.
Methods: Dilution buffer (50 mM HEPES-Na pH 7.5, 100 mM NaCl, 2 mM DTT, and 0.005% Tween-20) and compound DMSO dilutions were prepared. 4× compound working solutions were made with 8% DMSO (4×) and 13.8 μL/well of dilution buffer was placed in a new 96-well plate and 1.2 μL/well of above compound DMSO dilutions were added to the wells. 40 nM (4×) TM-493 in dilution buffer was prepared from a 10 μM DMSO stock and 15 μL per well of the TM-493 working solution was transferred into the compound working solution. 160 nM (2×) CRBN-DDB1 working solution was prepared with Dilution Buffer and 10 μL/well were added into a 384-well plate. 10 μL per well of the TM-493/compound mixture were transferred into the 384-well plate. The “positive control” was sample without protein and compound in 2% DMSO. After incubation at room temperature for 60 min, data was collected and read on data on an EnVision with the following setting: Excitation Light (%): 100; Measurement Height: 9.4; G-Factor: 1; Detector Gain 1: 200; Detector Gain 2: 200; Flash Number: 100. Data was processed using GraphPad Prism 7.0
The compound numbers correspond to the compound numbers in Table 1.

[1] = target: His-tagged CRBN-DDB1 complex (Homo sapiens, UniProt Q96SW2); assay: Time-Resolved Fluorescence Resonance Energy Transfer (TR-FRET / HTRF) CRBN binding assay, displacement of Cy5-labeled thalidomide; conditions: His-CRBN-DDB1, Cy5-thalidomide 8 nM, 1 hour room temperature
His-tagged CRBN-DDB1 complex, sequence (Q96SW2 whole entry): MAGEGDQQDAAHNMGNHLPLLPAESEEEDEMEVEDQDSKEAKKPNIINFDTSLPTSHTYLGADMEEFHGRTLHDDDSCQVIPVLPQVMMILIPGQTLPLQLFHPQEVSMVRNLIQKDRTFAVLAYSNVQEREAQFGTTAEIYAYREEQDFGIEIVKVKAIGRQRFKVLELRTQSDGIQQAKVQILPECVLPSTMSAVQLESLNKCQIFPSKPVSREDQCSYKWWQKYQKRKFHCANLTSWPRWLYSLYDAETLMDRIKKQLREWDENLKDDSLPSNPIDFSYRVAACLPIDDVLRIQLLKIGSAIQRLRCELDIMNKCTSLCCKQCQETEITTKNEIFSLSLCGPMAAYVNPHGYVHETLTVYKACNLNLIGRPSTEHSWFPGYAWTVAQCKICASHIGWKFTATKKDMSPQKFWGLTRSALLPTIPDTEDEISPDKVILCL
His-tagged CRBN-DDB1 complex, sequence (Q16531 whole entry partner): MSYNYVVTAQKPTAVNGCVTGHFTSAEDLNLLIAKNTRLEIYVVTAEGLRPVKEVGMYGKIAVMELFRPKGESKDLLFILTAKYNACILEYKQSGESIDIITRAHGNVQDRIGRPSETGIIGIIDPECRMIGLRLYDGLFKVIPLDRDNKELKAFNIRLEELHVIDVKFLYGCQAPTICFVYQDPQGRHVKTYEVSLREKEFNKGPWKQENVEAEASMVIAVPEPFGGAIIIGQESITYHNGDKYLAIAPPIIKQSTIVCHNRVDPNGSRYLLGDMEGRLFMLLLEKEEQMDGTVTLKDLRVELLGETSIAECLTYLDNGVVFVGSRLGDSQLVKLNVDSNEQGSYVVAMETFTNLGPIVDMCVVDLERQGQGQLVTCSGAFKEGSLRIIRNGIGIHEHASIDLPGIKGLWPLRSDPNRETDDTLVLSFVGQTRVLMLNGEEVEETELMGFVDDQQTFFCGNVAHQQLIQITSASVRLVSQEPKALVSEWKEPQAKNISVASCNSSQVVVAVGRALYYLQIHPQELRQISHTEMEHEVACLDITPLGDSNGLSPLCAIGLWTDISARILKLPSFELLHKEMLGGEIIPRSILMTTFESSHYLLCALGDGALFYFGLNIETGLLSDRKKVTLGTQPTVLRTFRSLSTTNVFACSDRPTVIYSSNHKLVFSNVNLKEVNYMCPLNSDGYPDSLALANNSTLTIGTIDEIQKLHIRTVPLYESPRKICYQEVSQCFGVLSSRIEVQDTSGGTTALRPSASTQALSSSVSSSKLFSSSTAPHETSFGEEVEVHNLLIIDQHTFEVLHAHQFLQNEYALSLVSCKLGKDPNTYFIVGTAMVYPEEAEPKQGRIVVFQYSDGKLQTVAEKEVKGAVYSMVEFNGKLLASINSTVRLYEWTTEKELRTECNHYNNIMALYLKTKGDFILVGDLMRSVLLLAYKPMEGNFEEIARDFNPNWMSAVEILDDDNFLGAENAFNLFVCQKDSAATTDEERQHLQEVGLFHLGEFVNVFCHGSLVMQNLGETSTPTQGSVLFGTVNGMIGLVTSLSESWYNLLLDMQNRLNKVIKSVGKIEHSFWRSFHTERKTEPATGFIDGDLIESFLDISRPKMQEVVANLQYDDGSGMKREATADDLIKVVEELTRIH

CRBN-DDB1, sequence (Q96SW2 whole entry): as the sequence (Q96SW2 whole entry) above
CRBN-DDB1, sequence (Q16531 whole entry partner): as the sequence (Q16531 whole entry partner) above

Row | SMILES | IC50 (CRBN-DDB1) [µM] | IC50 [1] [µM]
1 | O=C1C[C@]2(CCc3c([N+](=O)[O-])cccc32)C(=O)N1 [Compound I-196] | > 100 | > 100
2 | O=C1C[C@@]2(CCc3c([N+](=O)[O-])cccc32)C(=O)N1 [Compound I-197] | > 100 | > 100
3 | CC(C)(C)OC(=O)NCCCCCCCCCc1ccccc1Oc1cccc2c1C(=O)NC(=O)C2 [Compound I-218] | > 100 | > 100
4 | CC(C)(C)OC(=O)NCCCC#Cc1cccc(Oc2cccc3c2C(=O)NC(=O)C3)c1 [Compound I-221] | > 100 | < 10
5 | CC(C)(C)OC(=O)NCCCCCCCc1cccc(Oc2cccc3c2C(=O)NC(=O)C3)c1 [Compound I-224] | > 100 | < 10
6 | CC(C)(C)OC(=O)NCCCCCCCC#Cc1cccc(Oc2cccc3c2C(=O)NC(=O)C3)c1 [Compound I-225] | > 100 | > 100
7 | CC(C)(C)OC(=O)NCCCCCCCCCc1cccc(Oc2cccc3c2C(=O)NC(=O)C3)c1 [Compound I-226] | > 100 | > 100
8 | CC(C)(C)OC(=O)NCCCc1ccc(Oc2cccc3c2C(=O)NC(=O)C3)cc1 [Compound I-227] | > 100 | < 10
9 | CC(C)(C)OC(=O)NCCCC#Cc1ccc(Oc2cccc3c2C(=O)NC(=O)C3)cc1 [Compound I-228] | > 100 | > 100
10 | CC(C)(C)OC(=O)NCCCCCc1ccc(Oc2cccc3c2C(=O)NC(=O)C3)cc1 [Compound I-229] | > 100 | > 100
11 | CC(C)(C)OC(=O)NCCCCCC#Cc1ccc(Oc2cccc3c2C(=O)NC(=O)C3)cc1 [Compound I-230] | > 100 | > 100
12 | CC(C)(C)OC(=O)NCCCCCCCc1ccc(Oc2cccc3c2C(=O)NC(=O)C3)cc1 [Compound I-231] | > 100 | > 100
13 | CC(C)(C)OC(=O)NCCCCCCCC#Cc1ccc(Oc2cccc3c2C(=O)NC(=O)C3)cc1 [Compound I-232] | > 100 | > 100
14 | CC(C)(C)OC(=O)NCCCCCCCCCc1ccc(Oc2cccc3c2C(=O)NC(=O)C3)cc1 [Compound I-233] | > 100 | > 100
15 | O=C1Cc2nccc(Oc3ccccc3)c2C(=O)N1 [Compound I-236] | > 100 | > 100
16 | CC(C)(C)OC(=O)NCCCCCCCCCc1ccc(Oc2cccc3c2C(=O)NC(=O)C3=O)cc1 [Compound I-241] | 30 to 100 | < 10
17 | CC(C)(C)OC(=O)NCCCCCCCC#Cc1ccccc1Oc1cccc2c1C(=O)NC(=O)C2=O [Compound I-243] | 30 to 100 | < 10
18 | NCC#Cc1cccc(Oc2cccc3c2C(=O)NC(=O)C3)c1 [Compound I-244] | 30 to 100 | 10 to 30
19 | NCCCCCCCC#Cc1cccc(Oc2cccc3c2C(=O)NC(=O)C3)c1 [Compound I-248] | 30 to 100 | > 100
20 | CC(C)(C)OC(=O)NCCCCCCCc1ccccc1Oc1cccc2c1C(=O)NC(=O)C2=O [Compound I-252] | 30 to 100 | 10 to 30
21 | NCCCCCc1ccccc1Oc1cccc2c1C(=O)NC(=O)C2 [Compound I-254] | 30 to 100 | 10 to 30
22 | O=C1Cc2cnn(Cc3ccccc3)c2C(=O)N1 [Compound I-257] | > 100 | > 100
23 | O=C1Cc2cccc(Cc3ccccc3)c2C(=O)N1 [Compound I-258] | 30 to 100 | > 100
24 | CN1C(=O)Cc2cccc(Oc3ccccc3)c2C1=O [Compound I-260] | > 100 | > 100
25 | O=C1Cc2cccc(Oc3cccc4ccncc34)c2C(=O)N1 [Compound I-274] | 30 to 100 | 30 to 100
26 | O=C1Cc2ccnc(Oc3ccccc3)c2C(=O)N1 [Compound I-276] | 30 to 100 | 30 to 100
27 | Cc1cccc(CN2C[C@@H]3C(=O)NC(=O)[C@@H]3C2)n1 [Compound I-292] | > 100 | 10 to 30
28 | O=C1NC(=O)[C@@H]2CN(Cc3ccc(-c4ccccc4)cc3)C[C@H]12 [Compound I-319] | > 100 | 30 to 100

Next, values leading:

Row | IC50 (CRBN-DDB1) [µM] | IC50 [1] [µM] | SMILES
29 | 30 to 100 | 10 to 30 | O=C1Cc2cccc(-n3ccccc3=O)c2C(=O)N1 [Compound I-194]
30 | 10 to 30 | < 10 | O=C1Cc2cccc(Oc3cccc(F)c3)c2C(=O)N1 [Compound I-198, 8-(3-Fluorophenoxy)-2,4-dihydroisoquinoline-1,3-dione]
31 | 10 to 30 | < 10 | Cc1cccc(Oc2cccc3c2C(=O)NC(=O)C3)c1 [Compound I-199, 8-(3-Methylphenoxy)-2,4-dihydroisoquinoline-1,3-dione]
32 | < 10 | < 10 | O=C1Cc2cccc(Oc3ccccc3F)c2C(=O)N1 [Compound I-200, 8-(2-Fluorophenoxy)-2,4-dihydroisoquinoline-1,3-dione]
33 | < 10 | < 10 | O=C1Cc2cccc(Oc3ccccc3Cl)c2C(=O)N1 [Compound I-202, 8-(2-Chlorophenoxy)-2,4-dihydroisoquinoline-1,3-dione]
34 | < 10 | < 10 | Cc1cc2c(c(Oc3ccccc3)c1)C(=O)NC(=O)C2 [Compound I-203, 6-Methyl-8-phenoxy-2,4-dihydroisoquinoline-1,3-dione]
35 | 30 to 100 | 10 to 30 | CC(C)(C)OC(=O)NCCCc1cccc(Oc2cccc3c2C(=O)NC(=O)C3)c1 [Compound I-220]
36 | 30 to 100 | 30 to 100 | CC(C)(C)OC(=O)NCCCCCc1cccc(Oc2cccc3c2C(=O)NC(=O)C3)c1 [Compound I-222]
37 | 30 to 100 | 30 to 100 | CC(C)(C)OC(=O)NCCCCCC#Cc1cccc(Oc2cccc3c2C(=O)NC(=O)C3)c1 [Compound I-223]
38 | < 10 | < 10 | CC(C)(C)OC(=O)NCCCCCC#Cc1cccc(Oc2cccc3c2C(=O)NC(=O)C3=O)c1 [Compound I-234]
39 | 10 to 30 | < 10 | O=C1Cc2cncc(Oc3ccccc3)c2C(=O)N1 [Compound I-235]
40 | 10 to 30 | < 10 | CC(C)(C)OC(=O)NCCCCCCCC#Cc1cccc(Oc2cccc3c2C(=O)NC(=O)C3=O)c1 [Compound I-237]
41 | 30 to 100 | 30 to 100 | O=C1NC(=O)c2cc(Oc3ccccc3)ccc2C1=O [Compound I-238]
42 | < 10 | < 10 | CC(C)(C)OC(=O)NCCCC#Cc1ccc(Oc2cccc3c2C(=O)NC(=O)C3=O)cc1 [Compound I-239]
43 | 10 to 30 | < 10 | CC(C)(C)OC(=O)NCCCCCCCC#Cc1ccc(Oc2cccc3c2C(=O)NC(=O)C3=O)cc1 [Compound I-240]
44 | 10 to 30 | < 10 | NCCCC#Cc1cccc(Oc2cccc3c2C(=O)NC(=O)C3)c1 [Compound I-245]
45 | < 10 | < 10 | NCCCCCc1cccc(Oc2cccc3c2C(=O)NC(=O)C3)c1 [Compound I-246]

Row | IC50 (CRBN-DDB1) [µM] | IC50 [1] [µM] | SMILES
46 | 10 to 30 | < 10 | NCCCCCC#Cc1cccc(Oc2cccc3c2C(=O)NC(=O)C3)c1 [Compound I-247]
47 | 10 to 30 | 10 to 30 | NCCCCCc1ccc(Oc2cccc3c2C(=O)NC(=O)C3)cc1 [Compound I-249]
48 | < 10 | < 10 | NCCCCCCCc1ccc(Oc2cccc3c2C(=O)NC(=O)C3)cc1 [Compound I-250]
49 | < 10 | < 10 | NCCCCCCCCCc1ccc(Oc2cccc3c2C(=O)NC(=O)C3)cc1 [Compound I-251]
50 | < 10 | 10 to 30 | Cc1ccccc1Oc1cccc2c1C(=O)NC(=O)C2=O [Compound I-253]
51 | 10 to 30 | 10 to 30 | NCCCCCCCCCc1ccccc1Oc1cccc2c1C(=O)NC(=O)C2 [Compound I-255]
52 | 10 to 30 | > 100 | O=C1Cc2cccc(Oc3ccccn3)c2C(=O)N1 [Compound I-259]
53 | 10 to 30 | < 10 | NCCCC#Cc1ccc(Oc2cccc3c2C(=O)NC(=O)C3=O)cc1 [Compound I-264]
54 | < 10 | < 10 | NCCCC#Cc1ccc(Oc2cccc3c2C(=O)NC(=O)C3)cc1 [Compound I-265]
55 | < 10 | 10 to 30 | O=C1NC(=O)c2c(Oc3cccnc3)cccc2C1=O [Compound I-266]
56 | < 10 | 10 to 30 | CC(=O)NCc1cccc(Oc2cccc3c2C(=O)NC(=O)C3=O)c1 [Compound I-267]
57 | 10 to 30 | 30 to 100 | CC(=O)NCc1cccc(Oc2cccc3c2C(=O)NC(=O)C3)c1 [Compound I-268]
58 | 10 to 30 | 10 to 30 | CC(C)(C)OC(=O)NCc1cccc(Oc2cccc3c2C(=O)NC(=O)C3)c1 [Compound I-273]
59 | 10 to 30 | 10 to 30 | O=C1Cc2cccc(Oc3cccc4ccccc34)c2C(=O)N1 [Compound I-275]
60 | 10 to 30 | 10 to 30 | O=C1Cc2cccc(COc3ccccc3)c2C(=O)N1 [Compound I-277]
61 | 10 to 30 | 10 to 30 | O=C1Cc2cccc(CNc3ccccc3)c2C(=O)N1 [Compound I-278]
